{"source": "paper PMC11397024", "about": "“Strategic Fluorination to Achieve a Potent, Selective, Metabolically Stable, and Orally Bioavailable Inhibitor of CSNK2” (Molecules, 2024)", "assay_in_all_cases": "NanoBRET K192", "type_in_all_cases": "cell-based", "key": {"AKT2": {"molecular_target": "T1, AKT2 (Homo sapiens, UniProt P31751)", "T1 construct": "purchased Promega (NanoBRET Target Engagement K192 Kinase Selectivity System)", "conditions": "HEK293", "summary_of_the_method": "(§1)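 HEK293 cells were transfected overnight with NanoLuc–kinase fusion vectors, then treated for 2 h at 37 °C with compound (added as 100 μM working solution) plus K10 tracer. BRET was read at 450/610 nm after substrate and extracellular inhibitor, and fractional occupancy was calculated against no-compound controls.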"}, "BMX": {"molecular_target": "T2, BMX (Homo sapiens, UniProt P51813)", "T2 construct": "purchased Promega (NanoBRET Target Engagement K192 Kinase Selectivity System)", "conditions": "HEK293", "summary_of_the_method": "as §1"}, "CAMK2D": {"molecular_target": "T3, CAMK2D (Homo sapiens, UniProt Q13557)", "T3 construct": "purchased Promega (NanoBRET Target Engagement K192 Kinase Selectivity System)", "conditions": "HEK293", "summary_of_the_method": "as §1"}, "CDK14 + Y": {"molecular_target": "T4, CDK14 + Y (Homo sapiens, UniProt O94921)", "T4 construct": "purchased Promega (NanoBRET Target Engagement K192 Kinase Selectivity System)", "conditions": "HEK293", "summary_of_the_method": "as §1"}, "CHEK2": {"molecular_target": "T5, CHEK2 (Homo sapiens, UniProt O96017)", "T5 construct": "purchased Promega (NanoBRET Target Engagement K192 Kinase Selectivity System)", "conditions": "HEK293", "summary_of_the_method": "as §1"}, "CSNK1G2": {"molecular_target": "T6, CSNK1G2 (Homo sapiens, UniProt P78368)", "T6 construct": "purchased Promega (NanoBRET Target Engagement K192 Kinase Selectivity System)", "conditions": "HEK293", "summary_of_the_method": "as §1"}, "DAPK2": {"molecular_target": "T7, DAPK2 (Homo sapiens, UniProt Q9UIK4)", "T7 construct": "expressed in transfected cells; host or cells: HEK293", "summary_of_the_method": "as §1"}, "EPHA6": {"molecular_target": "T8, EPHA6 (Homo sapiens, UniProt Q9UF33)", "T8 construct": "purchased Promega (NanoBRET Target Engagement K192 Kinase Selectivity System)", "conditions": "HEK293", "summary_of_the_method": "as §1"}, "FES": {"molecular_target": "T9, FES (Homo sapiens, UniProt P07332)", "T9 construct": "purchased Promega (NanoBRET Target Engagement K192 Kinase Selectivity System)", "conditions": "HEK293", "summary_of_the_method": "as §1"}, "IRAK4": {"molecular_target": "T10, IRAK4 (Homo sapiens, UniProt Q9NWZ3)", "T10 construct": "purchased Promega (NanoBRET Target Engagement K192 Kinase Selectivity System)", "conditions": "HEK293", "summary_of_the_method": "as §1"}, "JAK2 (V617F)": {"molecular_target": "T11, JAK2 (V617F) (Homo sapiens, UniProt O60674, V617F)", "T11 construct": "purchased Promega (NanoBRET Target Engagement K192 Kinase Selectivity System)", "conditions": "HEK293", "summary_of_the_method": "as §1"}, "LIMK2": {"molecular_target": "T12, LIMK2 (Homo sapiens, UniProt P53671)", "T12 construct": "purchased Promega (NanoBRET Target Engagement K192 Kinase Selectivity System)", "T12 sequence (P53671 whole entry)": "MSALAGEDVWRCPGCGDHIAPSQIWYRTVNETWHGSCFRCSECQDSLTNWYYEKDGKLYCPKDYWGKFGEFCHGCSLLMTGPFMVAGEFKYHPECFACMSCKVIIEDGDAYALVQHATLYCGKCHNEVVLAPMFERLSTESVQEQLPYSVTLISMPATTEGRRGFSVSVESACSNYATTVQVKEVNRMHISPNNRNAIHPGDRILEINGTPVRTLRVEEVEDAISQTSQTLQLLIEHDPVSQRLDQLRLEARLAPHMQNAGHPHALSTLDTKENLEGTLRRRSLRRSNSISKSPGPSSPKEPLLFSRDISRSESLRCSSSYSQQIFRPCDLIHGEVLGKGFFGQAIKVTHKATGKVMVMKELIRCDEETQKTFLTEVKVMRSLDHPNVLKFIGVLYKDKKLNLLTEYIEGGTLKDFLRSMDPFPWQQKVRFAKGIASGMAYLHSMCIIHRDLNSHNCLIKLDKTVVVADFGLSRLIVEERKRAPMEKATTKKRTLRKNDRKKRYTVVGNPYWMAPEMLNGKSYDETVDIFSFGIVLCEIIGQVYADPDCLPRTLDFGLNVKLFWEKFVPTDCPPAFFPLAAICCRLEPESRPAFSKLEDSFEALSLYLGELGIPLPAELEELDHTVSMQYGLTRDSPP", "conditions": "HEK293", "summary_of_the_method": "as §1"}, "MAP3K11": {"molecular_target": "T13, MAP3K11 (Homo sapiens, UniProt Q16584)", "T13 construct": "purchased Promega (NanoBRET Target Engagement K192 Kinase Selectivity System)", "conditions": "HEK293", "summary_of_the_method": "as §1"}, "MAP4K3": {"molecular_target": "T14, MAP4K3 (Homo sapiens, UniProt Q8IVH8)", "T14 construct": "purchased Promega (NanoBRET Target Engagement K192 Kinase Selectivity System)", "conditions": "HEK293", "summary_of_the_method": "as §1"}, "MARK2": {"molecular_target": "T15, MARK2 (Homo sapiens, UniProt Q7KZI7)", "T15 construct": "purchased Promega (NanoBRET Target Engagement K192 Kinase Selectivity System)", "T15 sequence (Q7KZI7 whole entry)": "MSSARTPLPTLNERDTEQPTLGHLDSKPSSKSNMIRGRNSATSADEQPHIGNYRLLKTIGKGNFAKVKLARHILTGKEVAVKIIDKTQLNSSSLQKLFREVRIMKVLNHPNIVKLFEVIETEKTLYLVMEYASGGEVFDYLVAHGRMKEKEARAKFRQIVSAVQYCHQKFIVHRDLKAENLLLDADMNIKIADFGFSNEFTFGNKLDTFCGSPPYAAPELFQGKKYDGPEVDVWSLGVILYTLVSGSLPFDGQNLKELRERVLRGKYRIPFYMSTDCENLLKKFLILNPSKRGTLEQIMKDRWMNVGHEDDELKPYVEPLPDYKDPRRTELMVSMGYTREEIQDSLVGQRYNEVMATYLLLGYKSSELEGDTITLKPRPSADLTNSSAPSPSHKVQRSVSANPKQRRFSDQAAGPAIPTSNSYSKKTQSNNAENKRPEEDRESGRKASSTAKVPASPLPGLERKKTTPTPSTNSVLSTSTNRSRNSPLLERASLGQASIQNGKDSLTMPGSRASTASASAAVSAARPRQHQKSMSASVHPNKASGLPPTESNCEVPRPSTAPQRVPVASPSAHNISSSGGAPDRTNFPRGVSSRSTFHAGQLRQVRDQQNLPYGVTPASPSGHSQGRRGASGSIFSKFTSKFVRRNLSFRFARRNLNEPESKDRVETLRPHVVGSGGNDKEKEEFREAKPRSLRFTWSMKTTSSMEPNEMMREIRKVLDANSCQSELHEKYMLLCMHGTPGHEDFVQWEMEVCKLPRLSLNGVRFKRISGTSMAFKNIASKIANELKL", "conditions": "HEK293", "summary_of_the_method": "as §1"}, "MKNK2": {"molecular_target": "T16, MKNK2 (Homo sapiens, UniProt Q9HBH9)", "T16 construct": "purchased Promega (NanoBRET Target Engagement K192 Kinase Selectivity System)", "conditions": "HEK293", "summary_of_the_method": "as §1"}, "NEK9": {"molecular_target": "T17, NEK9 (Homo sapiens, UniProt Q8TD19)", "T17 construct": "purchased Promega (NanoBRET Target Engagement K192 Kinase Selectivity System)", "conditions": "HEK293", "summary_of_the_method": "as §1"}, "NIM1K": {"molecular_target": "T18, NIM1K (Homo sapiens, UniProt Q8IY84)", "T18 construct": "host or cells: HEK293", "conditions": "HEK293", "summary_of_the_method": "as §1"}, "NLK": {"molecular_target": "T19, NLK (Homo sapiens, UniProt Q9UBE8)", "T19 construct": "purchased Promega (NanoBRET Target Engagement K192 Kinase Selectivity System)", "conditions": "HEK293", "summary_of_the_method": "as §1"}, "PRKCE": {"molecular_target": "T20, PRKCE (Homo sapiens, UniProt Q02156)", "T20 construct": "purchased Promega (NanoBRET Target Engagement K192 Kinase Selectivity System)", "conditions": "HEK293", "summary_of_the_method": "as §1"}, "RET": {"molecular_target": "T21, RET (Homo sapiens, UniProt P07949)", "T21 construct": "purchased Promega (NanoBRET Target Engagement K192 Kinase Selectivity System)", "T21 sequence (P07949 29-1114)": "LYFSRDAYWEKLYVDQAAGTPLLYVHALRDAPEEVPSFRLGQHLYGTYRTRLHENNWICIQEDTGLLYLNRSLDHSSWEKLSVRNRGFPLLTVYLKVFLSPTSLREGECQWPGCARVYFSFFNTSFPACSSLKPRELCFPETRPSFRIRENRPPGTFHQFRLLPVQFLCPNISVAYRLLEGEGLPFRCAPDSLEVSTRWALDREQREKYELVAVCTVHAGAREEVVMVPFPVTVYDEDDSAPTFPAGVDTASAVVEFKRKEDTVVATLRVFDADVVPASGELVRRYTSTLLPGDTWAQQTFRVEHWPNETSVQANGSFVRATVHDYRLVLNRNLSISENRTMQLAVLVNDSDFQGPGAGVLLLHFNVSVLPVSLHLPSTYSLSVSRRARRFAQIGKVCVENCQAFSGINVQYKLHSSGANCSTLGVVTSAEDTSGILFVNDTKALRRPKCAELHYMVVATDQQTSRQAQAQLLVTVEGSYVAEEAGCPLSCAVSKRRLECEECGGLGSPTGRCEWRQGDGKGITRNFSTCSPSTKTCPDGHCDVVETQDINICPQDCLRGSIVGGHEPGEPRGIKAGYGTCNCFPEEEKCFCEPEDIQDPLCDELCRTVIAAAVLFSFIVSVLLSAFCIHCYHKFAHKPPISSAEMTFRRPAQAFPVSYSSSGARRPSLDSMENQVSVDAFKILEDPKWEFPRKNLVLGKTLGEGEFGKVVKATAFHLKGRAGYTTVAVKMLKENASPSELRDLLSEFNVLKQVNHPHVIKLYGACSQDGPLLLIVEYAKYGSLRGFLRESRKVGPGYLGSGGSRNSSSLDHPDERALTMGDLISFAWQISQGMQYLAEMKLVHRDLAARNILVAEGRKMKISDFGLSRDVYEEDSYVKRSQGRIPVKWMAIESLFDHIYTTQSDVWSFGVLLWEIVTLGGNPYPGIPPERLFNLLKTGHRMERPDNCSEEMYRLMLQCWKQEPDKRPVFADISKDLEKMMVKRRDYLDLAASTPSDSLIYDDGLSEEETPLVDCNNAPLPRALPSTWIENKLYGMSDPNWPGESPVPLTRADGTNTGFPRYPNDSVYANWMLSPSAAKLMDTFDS", "conditions": "HEK293", "summary_of_the_method": "as §1"}, "RPS6KA2": {"molecular_target": "T22, RPS6KA2 (Homo sapiens, UniProt Q15349)", "T22 construct": "purchased Promega (NanoBRET Target Engagement K192 Kinase Selectivity System)", "conditions": "HEK293", "summary_of_the_method": "as §1"}, "RPS6KA4": {"molecular_target": "T23, RPS6KA4 (Homo sapiens, UniProt O75676)", "T23 construct": "purchased Promega (NanoBRET Target Engagement K192 Kinase Selectivity System)", "conditions": "HEK293", "summary_of_the_method": "as §1"}, "SGK1": {"molecular_target": "T24, SGK1 (Homo sapiens, UniProt O00141)", "T24 construct": "purchased Promega (NanoBRET Target Engagement K192 Kinase Selectivity System)", "conditions": "HEK293", "summary_of_the_method": "as §1"}, "STK10": {"molecular_target": "T25, STK10 (Homo sapiens, UniProt O94804)", "T25 construct": "purchased Promega (NanoBRET Target Engagement K192 Kinase Selectivity System)", "conditions": "HEK293", "summary_of_the_method": "as §1"}, "STK4": {"molecular_target": "T26, STK4 (Homo sapiens, UniProt Q13043)", "T26 construct": "purchased Promega (NanoBRET Target Engagement K192 Kinase Selectivity System)", "T26 sequence (Q13043 whole entry)": "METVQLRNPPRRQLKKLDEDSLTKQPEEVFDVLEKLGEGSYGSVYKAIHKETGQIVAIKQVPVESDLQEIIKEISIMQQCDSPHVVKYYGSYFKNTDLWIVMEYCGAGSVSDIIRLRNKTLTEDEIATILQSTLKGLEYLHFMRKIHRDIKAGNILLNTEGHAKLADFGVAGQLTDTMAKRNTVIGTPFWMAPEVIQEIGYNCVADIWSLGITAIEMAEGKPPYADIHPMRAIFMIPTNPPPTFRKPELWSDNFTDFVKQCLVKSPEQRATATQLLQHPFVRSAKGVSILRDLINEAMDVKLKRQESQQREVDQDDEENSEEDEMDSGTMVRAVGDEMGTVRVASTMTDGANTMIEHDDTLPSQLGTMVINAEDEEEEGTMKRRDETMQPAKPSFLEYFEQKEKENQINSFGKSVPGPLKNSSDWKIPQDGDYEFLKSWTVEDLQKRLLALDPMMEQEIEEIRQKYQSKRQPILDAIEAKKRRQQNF", "conditions": "HEK293", "summary_of_the_method": "as §1"}, "TEC": {"molecular_target": "T27, TEC (Homo sapiens, UniProt P42680)", "T27 construct": "purchased Promega (NanoBRET Target Engagement K192 Kinase Selectivity System)", "T27 sequence (P42680 whole entry)": "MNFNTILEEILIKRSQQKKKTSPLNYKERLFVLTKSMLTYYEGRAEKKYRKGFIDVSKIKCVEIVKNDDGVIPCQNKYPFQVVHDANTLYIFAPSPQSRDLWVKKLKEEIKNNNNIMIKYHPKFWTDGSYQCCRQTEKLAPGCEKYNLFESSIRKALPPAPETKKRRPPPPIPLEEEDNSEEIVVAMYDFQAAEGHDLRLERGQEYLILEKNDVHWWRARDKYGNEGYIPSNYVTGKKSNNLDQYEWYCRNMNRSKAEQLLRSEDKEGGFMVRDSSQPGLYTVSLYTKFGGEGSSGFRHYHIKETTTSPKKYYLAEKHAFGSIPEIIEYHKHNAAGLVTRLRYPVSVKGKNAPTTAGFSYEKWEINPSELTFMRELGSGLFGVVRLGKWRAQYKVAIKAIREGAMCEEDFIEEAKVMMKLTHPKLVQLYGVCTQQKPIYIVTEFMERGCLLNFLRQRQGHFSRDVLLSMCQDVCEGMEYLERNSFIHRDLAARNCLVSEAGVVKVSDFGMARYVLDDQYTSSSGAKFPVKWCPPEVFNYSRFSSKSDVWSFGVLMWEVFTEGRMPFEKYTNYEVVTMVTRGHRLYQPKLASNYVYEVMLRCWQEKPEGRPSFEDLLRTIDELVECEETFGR", "conditions": "HEK293", "summary_of_the_method": "as §1"}, "ULK2": {"molecular_target": "T28, ULK2 (Homo sapiens, UniProt Q8IYT8)", "T28 construct": "purchased Promega (NanoBRET Target Engagement K192 Kinase Selectivity System)", "T28 sequence (Q8IYT8 whole entry)": "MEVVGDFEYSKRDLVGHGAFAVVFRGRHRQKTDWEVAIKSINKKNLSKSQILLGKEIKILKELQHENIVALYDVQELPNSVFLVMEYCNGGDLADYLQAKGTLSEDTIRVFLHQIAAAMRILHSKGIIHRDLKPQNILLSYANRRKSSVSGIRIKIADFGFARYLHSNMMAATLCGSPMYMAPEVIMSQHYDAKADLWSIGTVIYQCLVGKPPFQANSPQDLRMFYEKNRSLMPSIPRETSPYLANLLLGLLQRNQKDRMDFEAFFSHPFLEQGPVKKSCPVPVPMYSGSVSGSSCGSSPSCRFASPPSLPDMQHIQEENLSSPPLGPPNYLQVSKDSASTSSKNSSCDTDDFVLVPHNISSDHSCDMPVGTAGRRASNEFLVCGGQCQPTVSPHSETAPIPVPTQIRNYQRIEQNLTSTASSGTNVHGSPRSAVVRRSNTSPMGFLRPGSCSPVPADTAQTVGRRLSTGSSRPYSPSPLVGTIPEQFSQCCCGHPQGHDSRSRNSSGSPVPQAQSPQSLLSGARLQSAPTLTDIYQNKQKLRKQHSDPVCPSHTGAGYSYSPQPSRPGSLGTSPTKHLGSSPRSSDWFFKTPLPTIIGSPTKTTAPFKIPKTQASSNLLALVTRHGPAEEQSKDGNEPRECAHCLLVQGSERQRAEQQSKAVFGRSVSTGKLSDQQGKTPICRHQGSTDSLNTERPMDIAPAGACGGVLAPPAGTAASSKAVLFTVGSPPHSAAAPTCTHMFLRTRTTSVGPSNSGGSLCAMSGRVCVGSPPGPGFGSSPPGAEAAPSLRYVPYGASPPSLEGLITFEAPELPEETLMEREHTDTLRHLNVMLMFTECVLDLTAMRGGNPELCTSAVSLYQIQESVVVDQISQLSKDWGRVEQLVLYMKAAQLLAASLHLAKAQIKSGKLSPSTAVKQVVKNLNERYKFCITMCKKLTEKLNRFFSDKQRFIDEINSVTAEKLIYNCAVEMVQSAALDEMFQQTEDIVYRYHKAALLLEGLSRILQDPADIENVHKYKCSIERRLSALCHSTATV", "conditions": "HEK293", "summary_of_the_method": "as §1"}}}
{"smiles": "CCC(=O)Nc1cc(Nc2cc(NC3CC3)n3ncc(C#N)c3n2)c(F)cc1N1CCC[C@H](NC)C1", "note": "[Compound 2, (S)-N-(5-((3-cyano-7-(cyclopropylamino)pyrazolo[1,5-a]pyrimidin-5-yl)amino)-4-fluoro-2-(3-(methylamino)piperidin-1-yl)phenyl)propionamide]", "values": [{"measurement": "receptor occupancy at 10 µM", "setting": "AKT2", "value": 5.3, "unit": "%"}, {"measurement": "receptor occupancy at 10 µM", "setting": "BMX", "value": 0.6, "unit": "%"}, {"measurement": "receptor occupancy at 10 µM", "setting": "CAMK2D", "value": 18.4, "unit": "%"}, {"measurement": "receptor occupancy at 10 µM", "setting": "CDK14 + Y", "value": 29.4, "unit": "%"}, {"measurement": "receptor occupancy at 10 µM", "setting": "CHEK2", "value": -0.8, "unit": "%"}, {"measurement": "receptor occupancy at 10 µM", "setting": "CSNK1G2", "value": 21.8, "unit": "%"}, {"measurement": "% occupancy at 10 μM", "setting": "DAPK2; DAPK2, HEK293", "value": 72, "unit": "%"}, {"measurement": "receptor occupancy at 10 µM", "setting": "DAPK2; HEK293, DAPK2", "value": 72.1, "unit": "%"}, {"measurement": "receptor occupancy at 10 µM", "setting": "EPHA6", "value": 7.3, "unit": "%"}, {"measurement": "receptor occupancy at 10 µM", "setting": "FES", "value": 11.7, "unit": "%"}, {"measurement": "receptor occupancy at 10 µM", "setting": "IRAK4", "value": 9.2, "unit": "%"}, {"measurement": "receptor occupancy at 10 µM", "setting": "JAK2 (V617F)", "value": 13.1, "unit": "%"}, {"measurement": "receptor occupancy at 10 µM", "setting": "LIMK2", "value": 1.1, "unit": "%"}, {"measurement": "receptor occupancy at 10 µM", "setting": "MAP3K11", "value": 19.5, "unit": "%"}, {"measurement": "receptor occupancy at 10 µM", "setting": "MAP4K3", "value": 2.9, "unit": "%"}, {"measurement": "receptor occupancy at 10 µM", "setting": "MARK2", "value": 14.2, "unit": "%"}, {"measurement": "receptor occupancy at 10 µM", "setting": "MKNK2", "value": 23.6, "unit": "%"}, {"measurement": "receptor occupancy at 10 µM", "setting": "NEK9", "value": 1, "unit": "%"}, {"measurement": "receptor occupancy at 10 µM", "setting": "NIM1K", "value": -23.7, "unit": "%"}, {"measurement": "receptor occupancy at 10 µM", "setting": "NLK", "value": 11.9, "unit": "%"}, {"measurement": "receptor occupancy at 10 µM", "setting": "PRKCE", "value": 6.2, "unit": "%"}, {"measurement": "receptor occupancy at 10 µM", "setting": "RET", "value": 1.8, "unit": "%"}, {"measurement": "receptor occupancy at 10 µM", "setting": "RPS6KA2", "value": 2.4, "unit": "%"}, {"measurement": "receptor occupancy at 10 µM", "setting": "RPS6KA4", "value": 6.4, "unit": "%"}, {"measurement": "receptor occupancy at 10 µM", "setting": "SGK1", "value": 1.5, "unit": "%"}, {"measurement": "receptor occupancy at 10 µM", "setting": "STK10", "value": 14.4, "unit": "%"}, {"measurement": "receptor occupancy at 10 µM", "setting": "STK4", "value": 6.9, "unit": "%"}, {"measurement": "receptor occupancy at 10 µM", "setting": "TEC", "value": 9.1, "unit": "%"}, {"measurement": "receptor occupancy at 10 µM", "setting": "ULK2", "value": 15.5, "unit": "%"}]}
